According to ChEMBL document CHEMBL1141983, “QSAR of estrogen receptor modulators: exploring selectivity requirements for ER(alpha) versus ER(beta) binding of tetrahydroisoquinoline derivatives using E-state and physicochemical parameters” (Bioorg Med Chem Lett, 2005):

Tests used:
Estrogen receptor [1] = biological target: T1, Estrogen receptor (Homo sapiens, UniProt P03372)
T1 sequence (P03372 whole entry): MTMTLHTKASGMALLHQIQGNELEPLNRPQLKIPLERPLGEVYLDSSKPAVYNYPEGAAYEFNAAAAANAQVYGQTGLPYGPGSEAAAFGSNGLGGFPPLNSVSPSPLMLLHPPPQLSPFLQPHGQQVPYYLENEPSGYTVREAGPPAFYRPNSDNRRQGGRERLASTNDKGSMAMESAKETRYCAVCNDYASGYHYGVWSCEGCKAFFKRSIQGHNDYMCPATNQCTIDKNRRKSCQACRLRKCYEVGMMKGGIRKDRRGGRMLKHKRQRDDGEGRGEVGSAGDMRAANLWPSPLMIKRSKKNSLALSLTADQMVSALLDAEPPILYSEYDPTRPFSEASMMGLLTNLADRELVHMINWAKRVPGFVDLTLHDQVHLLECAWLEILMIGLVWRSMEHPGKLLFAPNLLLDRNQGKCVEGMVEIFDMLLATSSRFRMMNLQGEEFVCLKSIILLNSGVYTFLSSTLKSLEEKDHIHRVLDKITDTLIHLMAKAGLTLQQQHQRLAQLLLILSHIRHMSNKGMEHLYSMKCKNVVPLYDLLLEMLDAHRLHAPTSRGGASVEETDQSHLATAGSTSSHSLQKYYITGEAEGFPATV
Description: (§1) Inhibition of transcriptional activation by human estrogen receptor alpha

Estrogen receptor beta [2] = biological target: T2, Estrogen receptor beta (Homo sapiens, UniProt Q92731); assay: Inhibition of binding to human estrogen receptor beta
T2 sequence (Q92731 whole entry): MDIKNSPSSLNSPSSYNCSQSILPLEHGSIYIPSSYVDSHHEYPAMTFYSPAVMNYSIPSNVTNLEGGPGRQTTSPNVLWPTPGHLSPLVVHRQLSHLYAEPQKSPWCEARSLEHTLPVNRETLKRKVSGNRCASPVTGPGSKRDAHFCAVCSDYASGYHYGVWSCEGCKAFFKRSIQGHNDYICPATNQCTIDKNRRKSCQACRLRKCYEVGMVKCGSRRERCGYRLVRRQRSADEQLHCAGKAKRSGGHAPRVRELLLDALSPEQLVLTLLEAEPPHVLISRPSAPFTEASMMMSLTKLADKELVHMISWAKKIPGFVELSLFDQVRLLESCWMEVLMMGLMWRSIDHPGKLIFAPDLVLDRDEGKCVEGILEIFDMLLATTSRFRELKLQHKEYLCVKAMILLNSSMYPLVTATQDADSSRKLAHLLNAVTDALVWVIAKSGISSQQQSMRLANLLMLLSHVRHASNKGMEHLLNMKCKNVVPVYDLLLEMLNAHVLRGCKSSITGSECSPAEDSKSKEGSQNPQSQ

Estrogen receptor beta [3] = biological target: T2, Estrogen receptor beta; assay: Inhibition of transcriptional activation by human estrogen receptor beta
Estrogen receptor [4] = biological target: T1, Estrogen receptor; remark: listed apart in the source
Description: Inhibition of binding to human estrogen receptor alpha

Estrogen receptor [5] = biological target: T1, Estrogen receptor; remark: listed apart in the source
Description: as §1

| Compound | pIC50(uM) (Estrogen receptor [1]) | other results |
| --- | --- | --- |
| CC(C)c1ccc(N2CCc3cc(O)ccc3C2(C)c2ccc(OCCN3CCCCC3)cc2)cc1 (stereo not given) | 2.284 |  |
| CC1(c2ccc(OCCN3CCCCC3)cc2)c2ccc(O)cc2CCN1c1cccc(O)c1 (stereo not given) | 3.155 |  |
| CC1(c2ccc(OCCN3CCCCC3)cc2)c2ccc(O)cc2CCN1c1ccccc1 (stereo not given) | 2.585 |  |
| CC1(c2ccc(OCCN3CCCC3)cc2)c2ccc(O)cc2CCN1c1ccc(F)cc1 (stereo not given) | 2.796 |  |
| CC1(c2ccc(OCCN3CCCCC3)cc2)c2ccc(O)cc2CCN1c1ccc(Cl)cc1 (stereo not given) | 2.509 |  |
| CC1(c2ccc(OCCN3CCCCC3)cc2)c2ccc(O)cc2CCN1c1cccc(Cl)c1 (stereo not given) | 2.347 |  |
| CC1(c2ccc(OCCN3CCCC3)cc2)c2ccc(O)cc2CCN1c1cccc(F)c1 (stereo not given) | 2.523 |  |
| CC1(c2ccc(OCCN3CCCC3)cc2)c2ccc(O)cc2CCN1c1cccc(Cl)c1 (stereo not given) | 2.538 |  |
| CC1(c2ccc(OCCN3CCCCCC3)cc2)c2ccc(O)cc2CCN1c1ccccc1 (stereo not given) | 2.824 |  |
| CN(C)c1cccc(N2CCc3cc(O)ccc3C2c2ccc(OCCN3CCCCC3)cc2)c1 (stereo not given) |  | IC50 (Estrogen receptor beta [2]): 3.11 µM; IC50 (Estrogen receptor beta [3]): 2180 nM; IC50 (Estrogen receptor [4]): 71 nM; IC50 (Estrogen receptor [5]): 19.8 nM |
| CC(C)c1ccc(N2CCc3cc(O)ccc3C2(C)c2ccc(OCCN3CCCC3)cc2)cc1 (stereo not given) | 2.585 |  |
| CC1(c2ccc(OCCN3CCCC3)cc2)c2ccc(O)cc2CCN1c1ccccc1 (stereo not given) | 2.745 |  |
